According to PubChem BioAssay (NCI):
“And” between values parts separate entries of the source, which are not always exact repeats. Identical values can stand only once.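 Test compounds were applied to cells in 96-well plates for 48 hours at 5 doses. Here, GI50 denotes the concentration required for 50% inhibition of growth. TGI: concentration producing complete growth inhibition.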 Where a SMILES comes first, the peptide text is derived from it. [ ]: non-standard residue; d: D form. Ac5c = NC1(C(=O)O)CCCC1

Assays:
Assay in all cases: inhibition of tumour cell growth, NCI panel, 48 h
A498 renal = system: A498 renal
A549 NSCLC = system: A549 NSCLC
BT-549 breast = system: BT-549 breast
HL-60(TB) leukemia = system: HL-60(TB) leukemia
HS 578T breast = system: HS 578T breast
HT29 colon = system: HT29 colon
IGROV1 ovarian = system: IGROV1 ovarian
K-562 leukemia = system: K-562 leukemia
OVCAR-4 ovarian = system: OVCAR-4 ovarian
SK-MEL-2 melanoma = system: SK-MEL-2 melanoma

Row | Compound | GI50 (A498 renal) [µM] | TGI (A498 renal) | GI50 (A549 NSCLC) [µM] | TGI (A549 NSCLC) | GI50 (BT-549 breast) | TGI (BT-549 breast) | GI50 (HL-60(TB) leukemia) | TGI (HL-60(TB) leukemia) | GI50 (HS 578T breast) | TGI (HS 578T breast) | GI50 (HT29 colon) | TGI (HT29 colon) | GI50 (IGROV1 ovarian) | TGI (IGROV1 ovarian) | GI50 (K-562 leukemia) | TGI (K-562 leukemia) | GI50 (OVCAR-4 ovarian) [µM] | TGI (OVCAR-4 ovarian) | GI50 (SK-MEL-2 melanoma) [µM] | TGI (SK-MEL-2 melanoma)
1 | CC1=C2[C@@H](CC1)[C@]1(C)O[C@@](C3CCCCC3)(C[C@H]1OC(=O)CO)[C@H]2OC(=O)/C=C/c1ccccc1 | 0.0208 | 0.0731 µM | 7.19 | 20.5 µM | 0.328 µM | 6.67 µM | 6.48 µM | 18.3 µM | 0.0202 µM | 0.281 µM | 6.1 µM | 16.9 µM | 18.7 µM | 44.1 µM | 7.14 µM | 32.1 µM | 8.37 | 23.7 µM | 11.5 | 27.9 µM
2 | O=C(O[C@H]1CN[C@H](C#Cc2cc3ncnc(Nc4ccc5c(ccn5Cc5cc(F)ccc5F)c4)c3s2)C1)N1CCOCC1 | 0.765 | 5.2 µM | 3.07 | 10.1 µM | 4.32 µM | 11 µM | 3.5 µM | 11 µM | 0.488 µM | > 25 µM | 3.86 µM | 8.97 µM | 1.33 µM | > 16.7 µM | 6.49 µM | > 25 µM | 4.51 | 16.5 µM | 5.35 | 12.7 µM
3 | COc1ccc(/C=N\NC(=O)CN2CCN(c3cc4c(cc3F)c(=O)c(C(=O)N/N=C/c3ccc(OC)c(OC)c3)cn4C3CC3)CC2)cc1OC | 1.4 | 23.4 µM | 4.3 | 75.9 µM | 1.78 µM | 3.89 µM | 3.36 µM | 18.2 µM | 2.51 µM | 8.99 µM | 3.46 µM | > 100 µM | 3.1 µM | 17.1 µM | 3.81 µM | > 100 µM | 3.17 | 11 µM | 2.72 | 7.28 µM
4 | COc1cc(Nc2nccc(Nc3ccc4c(C)[nH]nc4c3)n2)cc(OC)c1OC | 0.253 | 1.94 µM | 1.26 | 5.41 µM | 3.3 µM | 11 µM | 3.31 µM | 9.04 µM | 0.604 µM | 5.15 µM | 0.916 µM | 4.49 µM | 0.858 µM | 5.6 µM | 1.4 µM | > 25 µM | 4.04 | > 20.7 µM | 1.23 | 5.09 µM
5 | CC(C)=CCCC(C)c1ccc(C)c2c1OCN(CC1CCNCC1)C2 (stereo unspecified) | 12.3 | 26 µM | 13 | 27.8 µM | 16.9 µM | 41.6 µM | 3.9 µM | 18.9 µM | 13.3 µM | 29.9 µM | 3 µM | 8.38 µM | 16.6 µM | 32.2 µM | 2.68 µM | 8.44 µM | 16 | 30.7 µM | 18.2 | 35.5 µM
6 | CCC1(CC)C(=O)OC(=O)C1(CC)CC |  | > 100 µM |  | > 100 µM |  | > 100 µM |  | > 100 µM |  | > 100 µM |  | > 100 µM |  | > 100 µM |  | > 100 µM |  | > 100 µM |  | > 100 µM
7 | CCOC(=O)Nc1nc2ccc(Cn3cccc3)cc2[nH]1 |  | 41.6 µM |  | > 100 µM |  | > 100 µM |  | 13.4 µM |  | > 100 µM |  | > 56.3 µM |  | > 100 µM |  | > 100 µM |  | > 100 µM |  | > 100 µM
8 | C=C1C(=O)O[C@H]2[C@H]1CC/C(CNC(=O)c1cc3cc(OC)ccc3[nH]1)=C\CC[C@@]1(C)O[C@@H]21 | 1.93 | 8.64 µM | 3.69 | 14.4 µM | 1.44 µM | 3.42 µM | 1.97 µM | 6.37 µM | 2.88 µM | 11.8 µM | 1.41 µM | 4.51 µM | 2.04 µM | 5.94 µM | 2.56 µM | 7.99 µM | 2 | 7.57 µM | 2.18 | 5.24 µM
9 | CCN(CC)CCCC(C)Nc1c2ccc(Cl)cc2nc2ccc(OC)cc12 (stereo unspecified) | 1.64 | 6.93 µM and 5.11 µM |  | 3.68 µM and 3.64 µM | 2.17 µM | 4.84 µM and 6.51 µM | 1.81 µM | 9.64 µM and 10.7 µM | 2.46 µM | 8.27 µM and 14.8 µM |  | 3.97 µM and 2.57 µM | 3.21 µM | 13.2 µM and 5.49 µM |  | 4.16 µM |  | 5.05 µM and 3.74 µM |  | 3.17 µM
10 | NC1(C(=O)NC2(C(=O)O)CCCC2)CCCC1 (H-[Ac5c]-[Ac5c]-OH) |  | > 100 µM |  | > 100 µM |  | > 100 µM |  | > 100 µM |  | > 100 µM |  | > 100 µM |  | > 100 µM |  | > 100 µM |  | > 100 µM |  | > 100 µM
11 | NOCC(=O)O | > 100 | > 100 µM | 49.5 | > 100 µM | > 100 µM | > 100 µM | 32.2 µM | > 100 µM | 71.1 µM | > 100 µM | 58.7 µM | > 100 µM | > 100 µM | > 100 µM | > 100 µM | > 100 µM | > 100 | > 100 µM | > 100 | > 100 µM
12 | Cc1cc(I)cc(CN(C)CCCN2CCSCC2)c1O | 26.4 | 51.3 µM | 30.7 | > 100 µM | 14.8 µM | 32.6 µM | 18.8 µM | 36.6 µM | 19.1 µM | 48.3 µM | 18.8 µM | 43.1 µM | 33.3 µM | > 100 µM | 14.2 µM | 32.6 µM | 44.7 | > 100 µM | 19.2 | 39.9 µM
13 | CC(=O)N[C@H]1C=C[C@@H]2/C=C(C)/C=C/[C@@H](C)[C@H]([C@H](C)[C@H](O)[C@@H](C)NC(C)=O)OC(=O)/C=C/C=C(C)\C=C\[C@]2(C)C1 | 0.0045 | 0.0181 µM |  | 4.65 µM and > 45 µM | 0.023 µM and 0.0045 µM | 4.65 µM and > 45 µM |  | 4.65 µM and 20.6 µM | 0.0161 µM and 0.0045 µM | 4.65 µM and 3.28 µM | 0.00384 µM and 0.0045 µM | 4.65 µM and > 45 µM | 0.0215 µM and 0.00532 µM | 4.65 µM and > 45 µM | 0.0307 µM and 0.00538 µM | 4.65 µM and > 45 µM | 6.59 | > 45 µM | 5.11 | 17.9 µM
14 | CCN(CC)CC(O)CNc1ccc(NCC2CO2)c2c1C(=O)c1ccccc1C2=O (stereo unspecified) |  | 11.6 µM |  | 5.69 µM | 1.22 µM | 4.27 µM | 0.00216 µM |  |  | 24.1 µM | 0.275 µM | 6.87 µM | 0.657 µM | 5.79 µM | 0.0135 µM |  |  | 3.3 µM |  | 0.785 µM and 0.839 µM
15 | C[C@]12C[C@H](c3ccccc3)Nc3ccccc3N1C(c1ccccc1)=NO2 |  | > 100 µM |  | > 100 µM |  | > 100 µM |  | > 100 µM |  | > 100 µM |  | > 100 µM |  | > 100 µM |  | > 100 µM |  | > 100 µM |  | > 100 µM
16 | COc1cc(OC)cc(C2CC(=O)Nc3c2c(C)nn3-c2nc3ccccc3[nH]2)c1 (stereo unspecified) | 2.11 | 4.69 µM | 3.18 | 15.5 µM | 2.46 µM | 7.86 µM | 2.34 µM | 7.37 µM | 3.06 µM | 39.9 µM | 2.75 µM | 7.43 µM | 2.74 µM | 7.76 µM | 3.15 µM | > 100 µM | 4.64 | > 100 µM | 2.42 | 5.88 µM
17 | CC(=O)c1c(C)[nH]c(-c2nc3ccc(N4CCN(C)CC4)cc3[nH]2)c1-c1ccc(OCC2CCOCC2)cc1 | 0.345 | 2.2 µM | 0.714 | 17.8 µM | 3.4 µM | 18 µM | 0.129 µM | 0.785 µM | 0.346 µM | 8.71 µM | 0.302 µM | 20.5 µM | 0.854 µM | 12.8 µM | 0.37 µM | 9.08 µM | 0.803 | 32.9 µM | 2 | 16.5 µM
18 | CO[C@@H]1/C=C\C=C(/C)C(=O)NC2=CC(=O)C(NCCN(C)C)=C(C[C@@H](C)C[C@@H](OC)[C@@H](O)[C@H](C)/C=C(\C)[C@H]1OC(N)=O)C2=O |  | 28.3 µM |  | 13.3 µM and 18.8 µM | 0.88 µM and 1.53 µM | 14.6 µM and 21.1 µM | < 0.0106 µM and 0.0715 µM | 1.4 µM and 0.734 µM |  | 38.3 µM and 76.3 µM | < 0.01 µM | 4.54 µM and 3.96 µM | 0.0164 µM | 1.85 µM and 1.99 µM | 0.0158 µM | 3.22 µM and 13.6 µM |  | 4.76 µM and 4.52 µM |  | 21.3 µM and 12.3 µM
19 | ClCc1cccc(Cn2cnc3c(NC45CC6CC(CC(C6)C4)C5)ncnc32)c1 | 15.4 | 31.7 µM | 21.7 | > 60.1 µM | 12.8 µM | 29.4 µM | 1.24 µM | 26.6 µM | 23.4 µM | 68.2 µM | 23.9 µM | > 100 µM | 18.3 µM | 45.8 µM | 1.89 µM | 29.4 µM | 15.5 | 38.8 µM | 16.7 | 48.1 µM
20 | O=C1Nc2ccc(C(=O)c3ccco3)cc2/C1=C/c1cc(Cl)c(O)c(Cl)c1 | 3.69 | 9.72 µM | 6.77 | > 24 µM | 3.54 µM | 10.5 µM | 6.93 µM | > 21.1 µM | 4.94 µM | > 21.7 µM | 5.75 µM | > 21.2 µM | 3.36 µM | > 20.7 µM | 9.05 µM | > 25 µM | 6.95 | > 25 µM | 2.86 | 7.21 µM
21 | Cc1nc2sc(C(=O)Nc3cccc(Cl)c3C)c(N)c2cc1C(=O)/C=C/c1ccccc1 | 0.298 | 1.4 µM | 0.476 | 6.68 µM | 0.525 µM | 1.72 µM | 0.575 µM | 2.13 µM | 0.38 µM | > 13.5 µM | 0.178 µM | 0.888 µM | 0.316 µM | 1.1 µM | 0.251 µM | > 50 µM | 1.23 | 7.03 µM | 0.304 | 8.61 µM
22 | CSc1ccc(C2=NN(C(=O)c3ccc(F)cc3)C(c3ccc(F)cc3)C2)cc1 (stereo unspecified) | 19.6 | 34.9 µM | 11.7 | 26.9 µM | 15.1 µM | 30 µM | 12 µM | 35.3 µM | 34.2 µM | 64.2 µM | 4.37 µM | 15.8 µM | 4.91 µM | 18.8 µM | 3.91 µM | 16.6 µM | 14.9 | 30.3 µM | 18.8 | 34.6 µM
23 | O=[N+]([O-])c1cc(Cl)c(Cl)c([N+](=O)[O-])c1Cl | 6.4 | 20.9 µM | 1.78 | 3.65 µM | 1.81 µM | 3.39 µM | 0.439 µM | 2.92 µM | 2.35 µM | 7.47 µM | 1.18 µM | 4 µM | 1.42 µM | 3.02 µM | 0.353 µM | > 100 µM | 1.69 | 3.06 µM | 1.8 | 3.37 µM
24 | CN1CCN(CCCN)CC1 |  | > 100 µM |  | > 100 µM |  | > 100 µM |  | > 100 µM |  | > 100 µM |  | > 100 µM |  | > 100 µM |  | > 100 µM |  | > 100 µM |  | > 100 µM
